Measurements: patent publication US8883410B2, “Method for determining the stability of organic methyleneamines in the presence of semicarbazide-sensitive amine oxidase” (Sanofi, priority 2007, dated 2014)

Target: T1, human SSAO T1 (Gly27-Asn763), C-terminal 6xHIS tag (Homo sapiens, UniProt Q16853)
T1 construct: T1 (Gly27-Asn763) Representing the Enzyme Lacking the Membrane Anchoring Region; additional N-terminal Met (N); expressed in transfected cells; cell lysate
T1 sequence (Q16853 27-763): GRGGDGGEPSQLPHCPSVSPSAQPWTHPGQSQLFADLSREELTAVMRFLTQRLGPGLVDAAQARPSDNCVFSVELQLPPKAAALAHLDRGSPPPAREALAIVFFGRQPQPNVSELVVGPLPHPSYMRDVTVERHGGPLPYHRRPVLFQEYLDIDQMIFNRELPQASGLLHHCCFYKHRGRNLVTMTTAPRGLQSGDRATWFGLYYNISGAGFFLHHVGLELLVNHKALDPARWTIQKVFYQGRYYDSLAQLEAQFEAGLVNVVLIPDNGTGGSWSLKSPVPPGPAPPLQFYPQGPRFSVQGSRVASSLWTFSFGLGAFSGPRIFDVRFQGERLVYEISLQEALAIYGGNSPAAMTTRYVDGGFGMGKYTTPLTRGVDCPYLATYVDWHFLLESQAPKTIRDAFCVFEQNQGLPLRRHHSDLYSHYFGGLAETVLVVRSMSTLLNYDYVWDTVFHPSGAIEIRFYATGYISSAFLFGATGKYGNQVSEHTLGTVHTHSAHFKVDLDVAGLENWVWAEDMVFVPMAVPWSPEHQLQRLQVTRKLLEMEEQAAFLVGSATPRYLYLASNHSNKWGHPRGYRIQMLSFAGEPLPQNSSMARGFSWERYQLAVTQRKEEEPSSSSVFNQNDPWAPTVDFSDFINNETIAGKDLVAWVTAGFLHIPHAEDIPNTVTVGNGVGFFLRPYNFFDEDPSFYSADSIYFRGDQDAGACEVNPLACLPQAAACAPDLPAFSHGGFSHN
Assay: Benzylamine stability in lysate of cells expressing T1 SSAO with C-terminal 6xHIS tag, LC/MS/MS
Type: in vitro ADME
Description: 3) T1 (Gly27-Asn763) Representing the Enzyme Lacking the Membrane Anchoring Region:
The expression constructs were prepared by cloning these PCR products into the pCDNA5-FRT-To-DEST vector (Invitrogen, Gateway System™). The forward and reverse DNA sequence of each construct was confirmed including expressed sequences and at least 100 base pairs either side of this. Stable cell lines for Flp-In CHO, Flp-In CHO T-Rex, and Flp-In HEK 293 (Invitrogen, Flp-In system™) were generated using these 6 constructs according to manufacturer's instructions. Cells were co-transfected with the regulatory vector, pOG44, and each of the pCDNA5-FRT-To-DEST constructs using Lipfectamine (Invitrogen) according to manufacturer's instructions. Thus, 18 cell lines were generated: CHO Flp-In full-length SSAO; CHO Flp-In full-length SSAO with C-terminal 6×HIS tag; CHO Flp-In T1 SSAO; CHO Flp-In T1 SSAO with C-terminal 6×HIS tag; CHO Flp-In T2 SSAO; CHO Flp-In T2 SSAO with C-terminal 6×HIS tag; CHO T-Rex Flp-In full-length SSAO; CHO T-Rex Flp-In full-length SSAO with C-terminal 6×HIS tag; CHO T-Rex Flp-In T1 SSAO; CHO T-Rex Flp-In T1 SSAO with C-terminal 6×HIS tag; CHO T-Rex Flp-In T2 SSAO; CHO Flp-In T2 SSAO with C-terminal 6×HIS tag; HEK 293 Flp-In full-length SSAO; HEK 293 Flp-In full-length SSAO with C-terminal 6×HIS tag; HEK 293 Flp-In T1 SSAO; HEK 293 Flp-In T1 SSAO with C-terminal 6×HIS tag; HEK 293 Flp-In T2 SSAO; HEK 293 Flp-In T2 SSAO with C-terminal 6×HIS tag.
Adherent CHO cells were cultured at 37° C., 5% CO2 in media containing Ham's F12, 10% fetal bovine serum, 2 mM L-glutamine, 1% Penicillin/Streptomycin, 300 μM hygromycin B. Adherent HEK 293 cells were cultured at 37° C., 5% CO2 in D-MEM (high glucose), 10% fetal bovine serum, 2 mM L-glutamine, and 200 μM hygromycin B. Stable transformants were identified by loss of zeocin resistance. Once the cells were 80% confluent, SSAO expression was induced by the addition of Tetracycline to 1 μg/mL. Following 18 hours, the cells were harvested using a trypsin treatment of 3 minutes, at room temperature. Cells were washed 3 times in phosphate buffered saline before flash freezing in liquid nitrogen.
For the preparation of cell lysate for activity testing, frozen cell pellets were resuspended in lysate buffer containing 10 mM Tris-HCl (pH 7.2), 150 mM NaCl, 1.5 mM MgCl2, 1% v/v NP-40 and incubated for 15 minutes on ice. Lysate was cleared by centrifugation 800×g for 10 minutes, 4° C. and stored in aliquots at −80° C. until use. Proteins were determined using Pierce Coomassie Protein Reagent, according to manufacturer's instructions.
For each assay run, 1 mL of cell lysate (1.5 mg/mL protein) was mixed with benzylamine to 2000 ng/mL final concentration. At each corresponding time point, […] the incubation mixture was transferred to a microcentrifuge tube (1.7 mL) and mixed with 50 μL of acetonitrile. The tubes were vortex mixed briefly to ensure complete mixing and then centrifuged at 10,000×g for 5 minutes. The supernatant was removed and 50 μL was transferred to an autosampler vial and mixed with 50 μL of water before LC/MS/MS analysis. Benzylamine remaining in the lysate was analyzed with LC/MS/MS method.
LC/MS/MS analysis was performed with a PE Sciex API 3000 mass spectrometer under the following conditions listed below and in Tables 1 and 2: […]

Which “Benzylamine Remaining (%)” value (CHO Flp-In T-Rex lysate, 0 min) does the source give for `NCc1ccccc1` [Benzylamine] here?
Its value is 100%.

What about the “Benzylamine Remaining (%)” value (CHO Flp-In T-Rex lysate, 10 min) of the same molecule?
Its value is 95%.

What about the “Benzylamine Remaining (%)” value (CHO Flp-In T-Rex lysate, 2 h) of the same molecule?
Its value is 93%.

What about the “Benzylamine Remaining (%)” value (CHO Flp-In lysate, 0 min) of the same molecule?
The value was 100%.

And the “Benzylamine Remaining (%)” value (CHO Flp-In lysate, 10 min)?
Its value is 101%.

And the “Benzylamine Remaining (%)” value (CHO Flp-In lysate, 2 h)?
Its value is 98%.

What about the “Benzylamine Remaining (%)” value (HEK293 lysate, 0 min) of the same molecule?
The value was 100%.

What about the “Benzylamine Remaining (%)” value (HEK293 lysate, 10 min) of the same molecule?
Its value is 111%.

What about the “Benzylamine Remaining (%)” value (HEK293 lysate, 2 h) of the same molecule?
Its value is 103%.
